These results are taken from ChEMBL document CHEMBL2346630 (J Med Chem, 2013).

Holding throughout (experiment): biochemical
Assay [1] addresses Cyclin-dependent kinase 7/ cyclin H (Homo sapiens, UniProt P50613).
Description: Inhibition of human recombinant His6 tagged CDK7/CyclinH/MAT1 expressed in Sf21 insect cells after 40 mins by scintillation counting analysis
Assay [2] deals with CDK9/cyclin T1 (Homo sapiens, UniProt P50750).
Description: Inhibition of human recombinant His6 tagged CDK9/CyclinT1 expressed in Sf21 insect cells after 40 mins by scintillation counting analysis
In assay [3] the target is Cyclin-dependent kinase 1/cyclin B1 (Homo sapiens, UniProt P06493).
Description: Inhibition of human recombinant His6 tagged CDK1/Cyclin B expressed in Sf21 insect cells after 40 mins by scintillation counting analysis
Assay [4] concerns the target Cyclin-dependent kinase 2/cyclin A (Homo sapiens, UniProt P24941).
Description: Inhibition of human recombinant His6 tagged CDK2/Cyclin A expressed in Sf21 insect cells after 40 mins by scintillation counting analysis

CDK9/cyclin T1, sequence (O60563 whole entry): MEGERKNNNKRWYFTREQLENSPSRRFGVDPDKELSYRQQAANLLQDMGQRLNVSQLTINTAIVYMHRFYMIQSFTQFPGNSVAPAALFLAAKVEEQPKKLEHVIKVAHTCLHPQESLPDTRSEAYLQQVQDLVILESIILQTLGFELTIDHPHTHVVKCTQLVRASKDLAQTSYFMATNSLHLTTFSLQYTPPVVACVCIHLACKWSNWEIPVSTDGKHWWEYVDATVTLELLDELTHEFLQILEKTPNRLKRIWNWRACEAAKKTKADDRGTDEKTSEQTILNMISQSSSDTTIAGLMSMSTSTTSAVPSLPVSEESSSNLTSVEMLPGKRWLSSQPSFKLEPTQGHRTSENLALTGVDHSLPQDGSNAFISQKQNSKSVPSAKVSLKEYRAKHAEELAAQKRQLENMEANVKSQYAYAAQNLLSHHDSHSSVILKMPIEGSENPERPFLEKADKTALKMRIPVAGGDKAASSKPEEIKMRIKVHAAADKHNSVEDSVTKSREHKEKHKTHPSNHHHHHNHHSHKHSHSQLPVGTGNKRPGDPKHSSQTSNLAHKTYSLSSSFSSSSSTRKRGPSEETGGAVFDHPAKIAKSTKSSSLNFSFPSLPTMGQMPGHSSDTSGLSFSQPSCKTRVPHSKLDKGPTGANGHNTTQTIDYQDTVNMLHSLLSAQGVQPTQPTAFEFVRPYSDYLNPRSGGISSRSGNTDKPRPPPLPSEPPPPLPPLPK
CDK9/cyclin T1, sequence (P50750 whole entry): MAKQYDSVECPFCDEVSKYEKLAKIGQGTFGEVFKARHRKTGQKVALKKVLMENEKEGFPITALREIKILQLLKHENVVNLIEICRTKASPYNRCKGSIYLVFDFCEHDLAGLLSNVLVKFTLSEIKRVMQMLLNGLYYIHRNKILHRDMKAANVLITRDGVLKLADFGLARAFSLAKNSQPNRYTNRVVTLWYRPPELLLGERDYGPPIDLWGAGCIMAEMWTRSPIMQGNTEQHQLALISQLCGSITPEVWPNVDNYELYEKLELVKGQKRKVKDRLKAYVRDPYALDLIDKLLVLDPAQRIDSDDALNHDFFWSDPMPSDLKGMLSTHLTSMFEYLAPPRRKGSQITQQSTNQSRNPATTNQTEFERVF
Cyclin-dependent kinase 7/ cyclin H, sequence (P51946 whole entry): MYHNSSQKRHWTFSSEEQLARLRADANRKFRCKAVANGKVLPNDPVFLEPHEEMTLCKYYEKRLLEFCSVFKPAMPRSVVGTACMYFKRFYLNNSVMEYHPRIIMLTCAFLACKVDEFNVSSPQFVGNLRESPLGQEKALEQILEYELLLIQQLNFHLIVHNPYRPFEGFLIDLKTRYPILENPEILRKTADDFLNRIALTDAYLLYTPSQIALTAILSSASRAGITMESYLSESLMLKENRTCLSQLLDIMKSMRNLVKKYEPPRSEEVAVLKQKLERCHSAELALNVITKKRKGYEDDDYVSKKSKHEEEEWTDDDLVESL
Cyclin-dependent kinase 7/ cyclin H, sequence (P50613 whole entry): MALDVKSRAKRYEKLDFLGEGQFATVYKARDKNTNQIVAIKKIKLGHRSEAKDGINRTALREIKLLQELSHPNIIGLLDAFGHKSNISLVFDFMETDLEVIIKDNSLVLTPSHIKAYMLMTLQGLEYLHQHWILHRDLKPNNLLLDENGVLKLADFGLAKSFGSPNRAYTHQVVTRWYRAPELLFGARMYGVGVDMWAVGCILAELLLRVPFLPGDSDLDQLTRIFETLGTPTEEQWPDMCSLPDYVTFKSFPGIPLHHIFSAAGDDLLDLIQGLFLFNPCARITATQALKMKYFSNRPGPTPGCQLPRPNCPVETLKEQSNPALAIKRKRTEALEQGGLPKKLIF
Cyclin-dependent kinase 1/cyclin B1, sequence (P06493 whole entry): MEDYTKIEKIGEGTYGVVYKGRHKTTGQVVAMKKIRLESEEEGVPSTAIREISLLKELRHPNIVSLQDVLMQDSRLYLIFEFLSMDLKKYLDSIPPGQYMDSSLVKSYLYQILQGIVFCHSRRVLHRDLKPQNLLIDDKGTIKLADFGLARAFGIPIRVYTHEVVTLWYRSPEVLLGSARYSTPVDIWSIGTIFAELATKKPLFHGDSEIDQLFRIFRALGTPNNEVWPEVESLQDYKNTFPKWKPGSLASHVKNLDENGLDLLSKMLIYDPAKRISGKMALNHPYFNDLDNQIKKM
Cyclin-dependent kinase 1/cyclin B1, sequence (P14635 whole entry, further chain): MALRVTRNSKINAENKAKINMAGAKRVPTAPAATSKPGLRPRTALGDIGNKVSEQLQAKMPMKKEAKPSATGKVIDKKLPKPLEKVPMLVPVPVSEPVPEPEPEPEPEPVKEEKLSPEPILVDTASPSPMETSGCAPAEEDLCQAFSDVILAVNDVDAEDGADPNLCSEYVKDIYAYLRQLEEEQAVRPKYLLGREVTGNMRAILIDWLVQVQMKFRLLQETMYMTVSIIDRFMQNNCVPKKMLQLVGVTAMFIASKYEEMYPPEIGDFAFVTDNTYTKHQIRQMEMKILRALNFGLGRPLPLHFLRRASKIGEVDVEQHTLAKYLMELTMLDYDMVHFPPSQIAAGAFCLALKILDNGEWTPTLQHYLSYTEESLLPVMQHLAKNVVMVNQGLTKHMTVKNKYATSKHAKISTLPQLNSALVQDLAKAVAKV

Regarding `CNc1nc(-c2ccccc2)c(-c2ccnc(Nc3cccc([N+](=O)[O-])c3)n2)s1`, the Ki in assay [1], in assay [2] and in assay [3] was over 5000 nM throughout.

Regarding `CNc1nc(C)c(-c2nc(Nc3cccc([N+](=O)[O-])c3)ncc2O)s1`, the Ki in assay [1] is over 5000 nM; in assay [2], 932 nM; in assay [4], over 5000 nM; in assay [3], 1420 nM.

For `CNc1nc(C)c(-c2ccnc(Nc3cccc(S(N)(=O)=O)c3)n2)s1`, the Ki stood at 1960 nM in assay [1], 2 nM in assay [2], 4 nM in assay [4] and 6 nM in assay [3].

Turning to `CNc1nc(C)c(-c2nc(Nc3cccc(S(N)(=O)=O)c3)ncc2O)s1`, the Ki in assay [1], in assay [2], in assay [4] and in assay [3] was over 5000 nM each time.

Turning to `CNc1nc(C)c(-c2nc(Nc3cccc(S(N)(=O)=O)c3)ncc2Cl)s1`, the Ki in assay [1] worked out at 685 nM; in assay [2], 11 nM.

In the case of `CNc1nc(C)c(-c2nc(Nc3cccc(S(N)(=O)=O)c3)ncc2C)s1`, the Ki worked out at 1180 nM in assay [1], 5 nM in assay [2] and 34 nM in assay [4].

Consider `CCc1cnc(Nc2cccc(S(N)(=O)=O)c2)nc1-c1sc(NC)nc1C`, for which the Ki in assay [1] is 1280 nM; in assay [2] it was 98 nM; in assay [4], 845 nM; in assay [3] it was 788 nM.

As for `CCCc1cnc(Nc2cccc(S(N)(=O)=O)c2)nc1-c1sc(NC)nc1C`, the Ki in assay [2] and in assay [4] was over 5000 nM throughout.

In the case of `CNc1nc(C)c(-c2nc(Nc3cccc(N4CCN(C(C)=O)CC4)c3)ncc2C#N)s1`, the Ki in assay [1] is 92 nM; in assay [2], 7 nM; in assay [4] it was 43 nM; in assay [3] it was 43 nM.

As to `CNc1nc(C)c(-c2nc(Nc3cccc(N4CCNCC4)c3)ncc2C#N)s1`, the Ki was determined as 68 nM in assay [1], 5 nM in assay [2], 56 nM in assay [4] and 42 nM in assay [3].

Take `CNc1nc(C)c(-c2nc(Nc3ccc(N4CCN(C(C)=O)CC4)cc3)ncc2C#N)s1`: the Ki was 316 nM in assay [1], 22 nM in assay [2], 26 nM in assay [4] and 45 nM in assay [3].

For `CNc1nc(C)c(-c2nc(Nc3ccc(N4CCNCC4)cc3)ncc2C#N)s1`, the Ki in assay [1] stood at 71 nM; in assay [2] it was 6 nM; in assay [4], 39 nM; in assay [3], 79 nM.

`CNc1nc(C)c(-c2nc(Nc3cccc(N4CCCCC4)c3)ncc2C#N)s1`: the Ki in assay [1] was determined as 286 nM; in assay [2], 9 nM; in assay [4], 42 nM; in assay [3], 35 nM.

Take `CNc1nc(C)c(-c2nc(Nc3cccc(N4CCN(C(C)=O)CC4)c3)ncc2F)s1`: the Ki was found to be 302 nM in assay [1], 7 nM in assay [2], 42 nM in assay [4] and 26 nM in assay [3].

Regarding `CNc1nc(C)c(-c2nc(Nc3cccc(N4CCNCC4)c3)ncc2F)s1`, the Ki in assay [1] worked out at 193 nM; in assay [2] it was 4 nM; in assay [4] it was 20 nM; in assay [3], 24 nM.

As to `CNc1nc(C)c(-c2nc(Nc3cccc(N4CCOCC4)c3)ncc2F)s1`, the Ki in assay [1] was found to be 473 nM; in assay [2] it was 3 nM; in assay [4] it was 20 nM; in assay [3] it was 18 nM.

For the molecule `CNc1nc(C)c(-c2nc(Nc3cccc(N4CCNCC4)c3)ncc2Cl)s1`, the Ki in assay [1] turned out to be 155 nM; in assay [2] it was 4 nM; in assay [4], 45 nM; in assay [3], 88 nM.

In the case of `CNc1nc(C)c(-c2nc(Nc3cccc(N4CCCNCC4)c3)ncc2F)s1`, the Ki amounted to 111 nM in assay [1], 5 nM in assay [2], 85 nM in assay [4] and 47 nM in assay [3].

Consider `CNc1nc(C)c(-c2ccnc(Nc3cccc(N4CCCNCC4)c3)n2)s1`, for which the Ki was found to be 433 nM in assay [1], 19 nM in assay [2], 320 nM in assay [4] and 195 nM in assay [3].

Turning to `CNc1nc(CC(F)(F)F)c(-c2ccnc(Nc3cccc([N+](=O)[O-])c3)n2)s1`, the Ki is over 5000 nM in assay [1], 134 nM in assay [2], over 5000 nM in assay [4] and over 5000 nM in assay [3].

Regarding `CNc1nc(CC(F)(F)F)c(-c2ccnc(Nc3cccc(O)c3)n2)s1`, the Ki was determined as 3470 nM in assay [1], 245 nM in assay [2], 282 nM in assay [4] and 556 nM in assay [3].

With `CNc1nc(CC(F)(F)F)c(-c2ccnc(Nc3ccc(O)cc3)n2)s1`, the Ki was determined as 1540 nM in assay [1], 278 nM in assay [2], 347 nM in assay [4] and 334 nM in assay [3].

For `CNc1nc(CC(F)(F)F)c(-c2ccnc(Nc3cccc(S(N)(=O)=O)c3)n2)s1`, the Ki in assay [1] turned out to be 1980 nM; in assay [2], 156 nM; in assay [4], 226 nM; in assay [3], 154 nM.

For `CNc1nc(C(F)(F)F)c(-c2ccnc(Nc3cccc(S(N)(=O)=O)c3)n2)s1`, the Ki in assay [1] was determined as 47 nM; in assay [2], 2 nM; in assay [4], 2 nM; in assay [3] it was 1.5 nM.

As to `CNc1nc(C(F)(F)F)c(-c2ccnc(Nc3ccc(S(N)(=O)=O)cc3)n2)s1`, the Ki in assay [1] is 64 nM; in assay [2], 3 nM; in assay [4], 1.5 nM; in assay [3], 0.5 nM.

In assay [1], `CNc1ncc(-c2ccnc(Nc3ccc(S(N)(=O)=O)cc3)n2)s1` registered a Ki of 54 nM.

On to `CNc1ncc(-c2ccnc(Nc3cccc(S(N)(=O)=O)c3)n2)s1`, for which the Ki in assay [1] came out at 40 nM; in assay [2], 3 nM; in assay [4], 5 nM; in assay [3] it was 4 nM.

For `CNc1nc(C2CC2)c(-c2ccnc(Nc3cccc(S(N)(=O)=O)c3)n2)s1`, the Ki in assay [1] came out at 273 nM; in assay [2] it was 16 nM; in assay [4], 2 nM; in assay [3] it was 18 nM.

For the molecule `CNc1nc(C2CC2)c(-c2ccnc(Nc3ccc(S(N)(=O)=O)cc3)n2)s1`, the Ki in assay [1] came to 255 nM; in assay [2], 8 nM; in assay [4] it was 13 nM; in assay [3], 2 nM.

In the case of `CNc1nc(C2CC2)c(-c2ccnc(Nc3cccc(N4CCCNCC4)c3)n2)s1`, the Ki came to 464 nM in assay [1], 66 nM in assay [2], 326 nM in assay [4] and 176 nM in assay [3].

In the case of `CNc1nc(C)c(-c2ccnc(Nc3cccc([N+](=O)[O-])c3)n2)s1`, the Ki in assay [1] was determined as 417 nM; in assay [2] it was 2 nM; in assay [4], 3 nM; in assay [3] it was 5 nM.

As a reminder, the Ki is a dissociation constant, usually derived from enzyme kinetics or from competition with a known ligand.
